Measured values as given in US20240150342A1, “ESTROGEN-RELATED RECEPTOR ALPHA MODULATORS” (LEAD PHARMA HOLDING B.V., priority 2019, published 2024).

How the values were obtained:
[1] = molecular target: T1, ERRα ligand binding domain (ERRα-LBD) (Homo sapiens, UniProt P11474); experiment: ERRα AlphaScreen Assay; assay type: biochemical; settings: disruption of binding of ERRα-LBD protein to biotin-PGC1α-3 co-activator peptide; read-out: mean pIC50 (converted)
T1 construct: made in house; host or cells: E. coli
T1 sequence (P11474 193-421 limits assumed): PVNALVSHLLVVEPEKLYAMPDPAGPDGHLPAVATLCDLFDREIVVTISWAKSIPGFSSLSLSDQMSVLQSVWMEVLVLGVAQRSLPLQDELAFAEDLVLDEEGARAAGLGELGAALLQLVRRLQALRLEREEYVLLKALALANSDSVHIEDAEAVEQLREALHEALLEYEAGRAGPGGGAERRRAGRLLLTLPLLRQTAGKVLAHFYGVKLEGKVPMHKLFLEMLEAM
Source text: This assay was based on the knowledge that nuclear receptors interact with cofactors in a ligand dependent matter. The sites of interaction have been mapped to LXXLL motifs that are present in the co-activator sequences. Short peptide sequences that contain the LXXLL motif mimic the behavior of full length co-activators.
The ERRα AlphaScreen Assay described here relies on the interaction of the co-activator peptide with purified bacterial- expressed ERRα ligand binding domain (ERRα-LBD); upon ligand binding, the ERRα protein can undergo a conformational change resulting in a loss of co-activator binding.
Compounds of the present invention were tested for their ability to disrupt binding of ERRα-LBD protein to co-activator peptide using AlphaScreen® Technology (Perkin Elmer). ERRα-LBD protein was expressed in E. coli as a 6×His Small Ubiquitin-like Modifier (SUMO) fusion. Bacterial expressed 6His-SUMO-ERRα-LBD protein was purified using affinity chromatography. All experiments were performed at room temperature in 384-well white non-binding plates (Greiner) using 50 mM Tris-HCl pH 7.5, 100 mM NaCl, 0.1% Pluronic F-127, 0.05% BSA and 5 mM TCEP as the buffer. Final DMSO concentration was 1% in the assay. Compounds were assayed in triplicate and: incubated with 0.81 nM ERRα-LBD protein and 10 μg/mL streptavidin donor beads and 10 μg/mL Ni-chelate acceptor beads for 1 hour at room temperature; followed by a 2-hour incubation with 15 nM biotin-PGC1α-3 peptide (QRRPCSELLKYLTTNDDPP) corresponding to amino acids 202 to 220.
The AlphaScreen signal was measured using an Envision Xcite plate reader (Perkin Elmer). Data was normalized, and curve fitting analysis was performed in GraphPad Prism 7 using a four-parameter dose-response fit.

[2] = molecular target: T2, full length ERRα (Homo sapiens, UniProt P11474); experiment: Full Length ERRα Reporter Gene Assay; assay type: cell-based; settings: SK-BR-3 cells, ERRα-RE luciferase reporter, overnight incubation; read-out: mean pIC50 (converted)
T2 construct: an over-expression construct coding full length ERRα; expressed in transfected cells; host or cells: SK-BR-3 cells, transient co-transfection of pLP2124 (pcDNA3.1/Hygro(+) background) and reporter pLP2175
T2 sequence (P11474 1-423): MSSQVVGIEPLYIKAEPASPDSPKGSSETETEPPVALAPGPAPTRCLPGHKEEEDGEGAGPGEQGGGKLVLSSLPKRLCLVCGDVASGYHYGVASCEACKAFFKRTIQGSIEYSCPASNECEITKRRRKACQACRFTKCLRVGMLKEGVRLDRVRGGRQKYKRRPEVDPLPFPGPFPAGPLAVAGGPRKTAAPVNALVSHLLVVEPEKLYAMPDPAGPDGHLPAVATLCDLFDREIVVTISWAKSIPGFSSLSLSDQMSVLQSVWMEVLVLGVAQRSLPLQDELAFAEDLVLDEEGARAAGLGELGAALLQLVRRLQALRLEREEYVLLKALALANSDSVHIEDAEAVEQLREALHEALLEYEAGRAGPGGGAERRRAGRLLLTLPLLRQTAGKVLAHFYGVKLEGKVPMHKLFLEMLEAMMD
Source text: A method was established to quantitatively screen the potency of compounds with inverse agonistic activity on the nuclear receptor ERRα of the human species. The assay allows intra-cellular screening of ERRα inverse agonists in SK-BR-3 cells using an over-expression construct coding full length ERRα and a reporter construct containing an ERRα Response Element (RE) and a luciferase gene for read out. The activity is expressed in logIC50 values and can be used to determine SAR of compound families or to de-select compounds.
In this assay, reporter cells are obtained by transient co-transfection of two constructs in SK-BR-3 cells using standard transfection techniques. The first construct contains a response element of the nuclear receptor ERRα (Plasmid pLP2175, Reporter construct ERRα-RE/luc2P, cloned variant of ERRα_v2_synthRE, Switchgear Genomics, Catalog Number S900089). This sequence drives the transcription of the luciferase reporter gene in response to binding of an ERRα protein encoded by the second construct (Plasmid pLP2124: full length ERRα expression construct using pcDNA3.1/Hygro(+) as background, Invitrogen Catalog Number V87020).
The day after transfection, cells were plated into 96 well plates, the test compound was added and the plates were incubated overnight. Subsequently, the firefly luciferase activity was quantified using luciferase detection reagent and luminescence readout.
Transfection is performed on pre-seeded SK-BR-3 cells in a T175 flask. One transfected T175 flask is sufficient for seeding 3 to 4 MW96 plates the next day, depending on the confluency of the transfected cells.
Two different media are used in this protocol for cell treatment: 1) Culture medium, i.e. McCoy's 5a with phenol red (BioWhittaker Supplier Number 12-688F), 10% FBS and 1× Penstrep.; and, 2) Assay medium, i.e. McCoy's 5a Medium phenol red free (HyClone Product Code SH30270.01) with 2% Charcoal Stripped FBS and 1× Penstrep. Compound dilutions are prepared in assay medium.
Cells are seeded at least 2 days in advance to allow the cells to adhere well to flask before transfection. Cells should be 50-80% confluent at the day of transfection.
SKBR3 cells were transfected with the transcriptional reporter construct pLP2175 and the ERRα expression construct pLP2124 (as described above).
68 μL of Lipofectamine LTX transfection reagent (Invitrogen Catalog Number 15338-100) was added dropwise to 8.9 ml Opti-MEM I Reduced Serum Medium (Gibco Catalog Number 51985-026) and incubated at room temperature for 5 to 20 minutes. 8.9 ml of this reagent mixture was added to 22 μg pLP2175+22 μg pLP2124 (ratio 1:1 and total volume 10 ml), and incubated at room temperature for 25 minutes.
10 minutes before adding the transfection mix to SKBR3 cells in a T175 flask, the culture medium was refreshed with 20 mL culture medium. Subsequently, the 10 mL DNA-Opti-MEM-Lipofectamine mixture was gently added to the cells, followed by overnight (16-24 hours) incubation at 37° C. and 5% CO2.
To harvest SKBR3 cells from a T175 flask, first the medium was removed. Subsequently, cells were washed with Phosphate Buffered Saline (PBS) (Lonza), after which the PBS was removed. To dissociate the cells, 2 ml of TrypLE Express (I nvitrogen) was added to the flask, followed by incubation at 37° C. for 5 minutes. The flask was tapped until cells were detached from the bottom. Cells were collected in 8 mL of culture medium (McCoy's 5a, 10% FBS, penstrep), to achieve a single cell suspension. After cell count, cells were spun down for 5 minutes at 300 g. Next cell pellets were re-suspended to 25000 cells/80 μl assay medium (McCoy's 5a phenol red free, 2% charcoal stripped FBS, penstrep).
For compound screening, the cells were harvested (as described above). 80 μL of cell suspension (25,000 cells) was plated per well into a white, flat bottom, tissue culture treated, 96 well screening plates (Greiner). […]

| SMILES | IC50 [1] | IC50 [2] |
| --- | --- | --- |
| COc1cc(C2CC(=O)Nc3n[nH]cc32)ccc1Oc1ccc(C#N)cc1C(C)(C)C (centres unmarked) [Example 39, 3-tert-butyl-4-(2-methoxy-4-{6-oxo-2H,4H,5H,6H,7H-pyrazolo[3,4-b]pyridin-4-yl}phenoxy)benzonitrile] | ≤ 10 nM | ≤ 316 nM |
| COc1cc(C2CC(=O)Nc3n[nH]cc32)ccc1Oc1ccc(C(C)(C)C)cc1C(C)(C)C (centres unmarked) [Example 37, 4-[4-(2,4-di-tert-butylphenoxy)-3-methoxyphenyl]-2H,4H,5H,6H,7H-pyrazolo[3,4-b]pyridin-6-one] | ≤ 10 nM | ≤ 316 nM |
| COC(=O)c1cc(Oc2ccc(C3CC(=O)Nc4n[nH]cc43)cc2OC)cc(C(F)(F)F)c1 (centres unmarked) [Example 41, methyl 3-(2-methoxy-4-{6-oxo-2H,4H,5H,6H,7H-pyrazolo[3,4-b]pyridin-4-yl}phenoxy)-5-(trifluoromethyl)benzoate] | 10 to 100 nM | ≤ 316 nM |
| COC(=O)c1ccc(Oc2ccc(C3CC(=O)Nc4n[nH]cc43)cc2OC)c(C(C)(C)C)c1 (centres unmarked) [Example 35, methyl 3-tert-butyl-4-(2-methoxy-4-{6-oxo-2H,4H,5H,6H,7H-pyrazolo[3,4-b]pyridin-4-yl}phenoxy)benzoate] | ≤ 10 nM | ≤ 316 nM |
| CCc1ccc(Oc2ccc(C3CC(=O)Nc4n[nH]cc43)cc2OC)c(C(C)(C)C)c1 (centres unmarked) [Example 32, 4-[4-(2-tert-butyl-4-ethylphenoxy)-3-methoxyphenyl]-2H,4H,5H,6H,7H-pyrazolo[3,4-b]pyridin-6-one] | ≤ 10 nM | ≤ 316 nM |
| COc1cc(C2CC(=O)Nc3n[nH]cc32)ccc1Oc1ccc(O)c(C(C)(C)C)c1 (centres unmarked) [Example 29, 4-[4-(3-tert-butyl-4-hydroxyphenoxy)-3-methoxyphenyl]-2H,4H,5H,6H,7H-pyrazolo[3,4-b]pyridin-6-one] | ≤ 10 nM | ≤ 316 nM |
| COc1cc(C2CC(=O)Nc3n[nH]cc32)ccc1Oc1ccc(C)cc1C(C)(C)C (centres unmarked) [Example 34, 4-[4-(2-tert-butyl-4-methylphenoxy)-3-methoxyphenyl]-2H,4H,5H,6H,7H-pyrazolo[3,4-b]pyridin-6-one] | ≤ 10 nM | ≤ 316 nM |
| COc1cc(C2CC(=O)Nc3n[nH]cc32)ccc1Oc1ccc(Br)cc1C(C)(C)C (centres unmarked) [Example 33, 4-[4-(4-bromo-2-tert-butylphenoxy)-3-methoxyphenyl]-2H,4H,5H,6H,7H-pyrazolo[3,4-b]pyridin-6-one] | ≤ 10 nM | ≤ 316 nM |
| COc1cc(C2CC(=O)Nc3n[nH]cc32)ccc1Oc1ccccc1S(F)(F)(F)(F)F (centres unmarked) [Example 40, 4-{3-methoxy-4-[2-(pentafluoro-λ^6-sulfanyl)phenoxy]phenyl}-2H,4H,5H,6H,7H-pyrazolo[3,4-b]pyridin-6-one] | 10 to 100 nM | ≤ 316 nM |

Other lines, results leading:

| IC50 [1] | IC50 [2] | SMILES |
| --- | --- | --- |
| ≤ 10 nM | ≤ 316 nM | COc1cc(C2CC(=O)Nc3n[nH]cc32)ccc1Oc1cc(C(F)F)cc(C(F)(F)F)c1 (single isomer, unassigned; (-)) [Example 86, (−)-4-{4-[3-(difluoromethyl)-5-(trifluoromethyl)phenoxy]-3-methoxyphenyl}-2H, 4H,5H,6H,7H-pyrazolo[3,4-b]pyridin-6-one] |
| ≤ 10 nM | ≤ 316 nM | COc1cc(C2CC(=O)Nc3n[nH]cc32)ccc1Oc1cc(C)cc(C(F)(F)F)c1 (single isomer, unassigned; (-)) [Example 84, (−)-4-{3-methoxy-4-[3-methyl-5-(trifluoromethyl)phenoxy]phenyl}-2H,4H,5H,6H,7H-pyrazolo[3,4-b]pyridin-6-one] |
| ≤ 10 nM | ≤ 316 nM | COc1ccc(Oc2ccc(-c3cc(=O)[nH]c4n[nH]cc34)cc2OC)c(C(C)(C)C)c1 [Example 68, 4-[4-(2-tert-butyl-4-methoxyphenoxy)-3-methoxyphenyl]-2H,6H,7H-pyrazolo[3,4-b]pyridin-6-one] |
| ≤ 10 nM | ≤ 316 nM | COc1cc(-c2cc(=O)[nH]c3n[nH]cc23)ccc1Oc1ccc(C)cc1C(C)(C)C [Example 69, 4-[4-(2-tert-butyl-4-methylphenoxy)-3-methoxyphenyl]-2H,6H,7H-pyrazolo[3,4-b]pyridin-6-one] |
| ≤ 10 nM | ≤ 316 nM | CCc1ccc(Oc2ccc(-c3cc(=O)[nH]c4n[nH]cc34)cc2OC)c(C(C)(C)C)c1 [Example 67, 4-[4-(2-tert-butyl-4-ethylphenoxy)-3-methoxyphenyl]-2H,6H,7H-pyrazolo[3,4-b]pyridin-6-one] |
| 10 to 100 nM | ≤ 316 nM | COc1cc(C2CC(=O)Nc3n[nH]cc32)ccc1Oc1cc(C(F)(F)F)cc(C(F)(F)F)c1 (racemic) [Example 43, 4-{4-[3,5-bis(trifluoromethyl)phenoxy]-3-methoxyphenyl}-2H,4H,5H,6H,7H-pyrazolo[3,4-b]pyridin-6-one] |
| ≤ 10 nM | ≤ 316 nM | COc1cc(C2CC(=O)Nc3n[nH]cc32)ccc1Oc1cc(C)cc(C(F)(F)F)c1 (centres unmarked) [Example 63, 4-{3-methoxy-4-[3-methyl-5-(trifluoromethyl)phenoxy]phenyl}-2H,4H,5H,6H,7H-pyrazolo[3,4-b]pyridin-6-one] |
